Test results reported in US20220339187A1, “ANTIMICROBIAL PEPTIDE-SELENIUM NANOPARTICLES” (The University of Melbourne, priority 2019, published 2022).

Legend:
[1] = system: multidrug-resistant K. pneumoniae (MDR); experiment: Bacterial growth inhibition test / MIC calculation; type: cell-based, Klebsiella pneumoniae; conditions: MHB, 37° C., growth curves, linear regression, mean ± s.d.
Description: The bacterial strains methicillin-sensitive Staphylococcus aureus (S. aureus) ATCC 29213, methicillin-resistant Staphylococcus aureus (MRSA) ATCC 43300, Enterococcus faecalis (E. faecalis) ATCC 29212, Escherichia coli (E. coli) ATCC 25922, Acinetobacter baumannii (A. baumannii) 2208 ATCC19606, Pseudomonas aeruginosa (P. aeruginosa) strain PAO1-LAC ATCC 47085, Klebsiella pneumoniae (K. pneumoniae) ATCC 13883 and multidrug-resistant K. pneumoniae (MDR), were obtained from the culture collection of the Oral Health Cooperative Research Centre, The Melbourne Dental School, University of Melbourne, Australia. Bacteria were cultured in Mueller Hinton Broth (MHB) at 37° C. […] The plate was put into an iEMS microplate reader (Pathtech Pty Ltd, Melbourne, Australia) at a temperature of 37° C. to monitor bacterial growth by measuring the absorbance at wavelength of 630 nm for 24 h. Background absorbance values due to the Se NP solutions were subtracted from the measured absorbance values.
The absorbance values from bacteria growth curves at the time when the stationary phase starts (tsps) were taken and calculated as a percentage of the untreated control (Z=OD5/OD6×100%, where OD5 represents absorbance at tsps of experimental groups and OD6 represents the absorbance at tsps of the negative control group; all absorbance values had the culture medium background values subtracted). […]

[2] = system: methicillin-sensitive S. aureus (MSSA) ATCC 29213; experiment: Membrane potential change test (BacLight, DiOC2(3)); type: cell-based, Staphylococcus aureus; conditions: 6.25 or 12.5 μg/ml
Procedure: (§1) Membrane potential change was measured using a BacLight Bacterial Membrane Potential Kit (Invitrogen). The bacterial strain methicillin-sensitive S. aureus (MSSA) ATCC 29213, E. faecalis ATCC 29212, E. coli ATCC 25922 were cultured in MHB at 37° C. 50 μL of different concentrations of Se NPs, Se NP-ε-PL or pure ε-PL in PBS solution was added into each well of 96-well microplates. 50 μL MHB with 2.5×10^6 cells/mL bacteria was then added into each well. 50 μL MHB with 2.5×10^6 cells/mL bacteria was added to 50 μL PBS to act as untreated control. Carbonyl cyanide 3-chlorophenylhydrazone (CCCP) was added to untreated control at a final concentration of 5 μM to act as fully depolarized control. 3,3′-Diethyloxacarbocyanine Iodide (DiOC2(3)) was added to all wells at a final concentration of […]. […] The untreated (polarized) and CCCP-treated (fully depolarized) controls were used to determine the percentage of depolarized cells. Two independent experiments were done for this test, and two technical replicates were adopted for each independent experiment.

[3] = system: E. faecalis ATCC 29212; experiment: as above; type: cell-based, Enterococcus faecalis; conditions: 6.25 or 12.5 μg/ml
Procedure: as §1

[4] = system: methicillin-sensitive S. aureus (MSSA) ATCC 29213; experiment: ROS production test (CellROX Orange, flow cytometry); type: cell-based, Staphylococcus aureus; conditions: 6.25 or 12.5 μg/ml
Procedure: The bacterial strains methicillin-sensitive S. aureus (MSSA) ATCC 29213, E. faecalis ATCC 29212, E. coli ATCC 25922 were cultured in MHB at 37° C. 50 μL of different concentration of Se NPs, Se NP-ε-PL or pure ε-PL in PBS solution was added into each well of a 96-well microplate. 50 μL MHB with 2.5×10^6 cells/mL bacteria was then added into each well. After 90 min incubation at 37° C., CellROX® Orange Reagent was added into each well at a final concentration of 750 nM. The cells were incubated for a further 1 h. The fluorescence from the CellROX Orange Reagent was measured on FL-3 (red fluorescence channel) using the Cell Lab Quanta SC MPL flow cytometer (Beckman Coulter). Two independent experiments were done for this test, and two technical replicates were adopted for each independent experiment.

[5] = system: human dermal fibroblast cells (HDF); experiment: Lactate Dehydrogenase (LDH) release assay; type: cell-based; conditions: concentration of up to 50 μg/mL, 6 h
Procedure: LDH is released from cells into the medium when cell lysis occurs. The amount of LDH released to the medium was measured using the Cyto Tox 96® nonradioactive assay (Promega, Madison, Wis., USA) following the manufacturer's instructions. The HDF cells were cultured in a 96-well microplate for 24 h, before the old medium was replaced with DMEM with including either Se NPs, Se NP-ε-PL or pure ε-PL. Pure DMEM was used as negative control. The microplate was put back into the incubator for 6 h. For the maximum LDH release control, HDF cells were lysed using 1× lysis solution for 45 minutes before adding Cyto Tox 96 reagent. Cyto Tox 96 reagent was then added to the wells and the microplate was incubated for a further 30 minutes. The reaction was then stopped by adding stop solution. A microplate reader (M200 PRO, Tecan) was utilized to test absorbance at 490 nm. The cytotoxicity (Y) was calculated using the following formula: […]
OD3 represents the mean absorbance of experimental groups, and OD4 represents the mean absorbance of the maximum LDH release control group. All absorbance values are after subtraction of the culture medium background values.

[6] = system: E. coli ATCC 25922; experiment: Membrane potential change test (BacLight, DiOC2(3)); type: cell-based, Escherichia coli; conditions: 6.25 or 12.5 μg/ml (CCCP 5 μM)
Procedure: as §1

[7] = system: multidrug-resistant K. pneumoniae (MDR); experiment: CFU measuring assay / MBC calculation; type: cell-based, Klebsiella pneumoniae; conditions: 90 min at 37° C., linear regression, mean ± s.d.
Procedure: For the CFU measuring assay, 50 μL of different concentrations of Se NPs, Se NP-ε-PL or pure ε-PL in PBS solution was added into each well of 96-well microplates, then 50 μL MHB with 2.5×10^6 cells/mL bacteria were added into each well. After incubating the microplate at 37° C. for 90 min, the bacterial solutions were diluted 10^−1, 10^−2, 10^−3 and 10^−4 times, then 10 μL of each dilution was transferred onto agar plates with MHB. The agar plates were incubated overnight, before the bacterial colony forming units were observed and measured.
Concentration-killing curves were plotted with CFUs/mL as a function of antibacterial agent concentration, and linear regression analysis was used to determine the lowest concentration (MBC) at which the CFU/mL becomes zero.

ε-poly-L-lysine [ε-PL]
MIC [1]: 26.5 ± 0.5 µg/mL | depolarisation of cell membrane [2]: depolarized cell membranes | depolarisation of cell membrane [3]: depolarized cell membranes | ROS production (high ROS production cells) [4]: slight promotion of ROS production | LDH released from HDF cells compared with untreated control [5]: no significant difference to the untreated control | depolarisation of cell membrane [6]: depolarized cell membranes | MBC [7]: 24.7 ± 0.5 µg/mL
